Measurements published in ChEMBL document CHEMBL1201862, “PubChem BioAssay data set” (2004).
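All cell lines were grown in 96-well plates and treated with compound for 48 hours. GI50 marks 50% less growth.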 Calls of active or inactive are those of the source. No stated cut-off is given here; in the data, active = GI50 up to about 1.1 µM and inactive = higher.

Columns and labels:
Assay in all cases: NCI anticancer screen, dose series, 48 h
SNB-75 = tested on: SNB-75
LXFL 529 = tested on: LXFL 529
786-0 = tested on: 786-0
A498 = tested on: A498
RPMI-8226 = tested on: RPMI-8226
UACC-257 = tested on: UACC-257
COLO 205 = tested on: COLO 205
IGROV-1 = tested on: IGROV-1
KM-20L2 = tested on: KM-20L2
U-251 = tested on: U-251
UO-31 = tested on: UO-31
K562 = tested on: K562
DLD-1 = tested on: DLD-1
XF498 = tested on: XF498
ACHN = tested on: ACHN
SF-539 = tested on: SF-539
CAKI-1 = tested on: CAKI-1
NCI-H226 = tested on: NCI-H226
UACC-62 = tested on: UACC-62
HL-60 = tested on: HL-60
NCI-H23 = tested on: NCI-H23
KM12 = tested on: KM12
NCI-H522 = tested on: NCI-H522
DMS-114 = tested on: DMS-114
SR = tested on: SR
MOLT-4 = tested on: MOLT-4
HCT-116 = tested on: HCT-116
M19-MEL = tested on: M19-MEL
SNB-19 = tested on: SNB-19
HT-29 = tested on: HT-29
SK-MEL-2 = tested on: SK-MEL-2
SN12C = tested on: SN12C
HOP-18 = tested on: HOP-18
M14 = tested on: M14
DMS-273 = tested on: DMS-273
Malme-3M = tested on: Malme-3M
OVCAR-8 = tested on: OVCAR-8
SK-MEL-5 = tested on: SK-MEL-5
NCI-H460 = tested on: NCI-H460
A549 = tested on: A549
SF-268 = tested on: SF-268
RXF 393 = tested on: RXF 393
EKVX = tested on: EKVX
SK-MEL-28 = tested on: SK-MEL-28
OVCAR-5 = tested on: OVCAR-5
HCT-15 = tested on: HCT-15
SW-620 = tested on: SW-620
CCRF-CEM = tested on: CCRF-CEM
SNB-78 = tested on: SNB-78
TK-10 = tested on: TK-10
SF-295 = tested on: SF-295
HOP-62 = tested on: HOP-62
HOP-92 = tested on: HOP-92
OVCAR-4 = tested on: OVCAR-4
OVCAR-3 = tested on: OVCAR-3
LOX IMVI = tested on: LOX IMVI

Measured: GI50

Cn1c(=O)c2c3ccccc3c(C(=O)c3ccccc3)n2c2ccccc21
3.4 µM: HCT-15
inactive: SNB-75 3.18 µM | LXFL 529 > 24.5 µM | 786-0 10.3 µM | A498 7.31 µM | RPMI-8226 3.55 µM | UACC-257 > 100 µM | COLO 205 5.51 µM | IGROV-1 > 100 µM | KM-20L2 3.8 µM | U-251 18.9 µM | UO-31 > 52.7 µM | K562 4.08 µM | DLD-1 8.24 µM | XF498 > 50.9 µM | ACHN 24 µM | SF-539 16.3 µM | CAKI-1 > 26.8 µM | NCI-H226 > 56.1 µM | UACC-62 4.02 µM | HL-60 4.65 µM | NCI-H23 23.3 µM | KM12 2.44 µM | NCI-H522 3.33 µM | DMS-114 3.67 µM | SR 2.45 µM | MOLT-4 3.94 µM | HCT-116 4.12 µM | M19-MEL 3.68 µM | SNB-19 > 43.3 µM | HT-29 3.63 µM | SK-MEL-2 15.5 µM | SN12C 9.33 µM | HOP-18 18.7 µM | M14 8.55 µM | DMS-273 3.27 µM | Malme-3M 5.62 µM | OVCAR-8 16.4 µM | SK-MEL-5 6.08 µM | NCI-H460 3.48 µM | A549 56.8 µM | SF-268 20 µM | RXF 393 14.7 µM | EKVX > 89.3 µM | SK-MEL-28 17.8 µM | OVCAR-5 17.3 µM | SW-620 5.78 µM | CCRF-CEM 9.82 µM | SNB-78 63.2 µM | TK-10 > 43.7 µM | SF-295 5.69 µM | HOP-62 > 42.8 µM | HOP-92 3.84 µM | OVCAR-4 22.6 µM | OVCAR-3 2.94 µM | LOX IMVI 9.64 µM
